Experiments:
[1] = target: T1, Recombinant renin (Homo sapiens, UniProt P00797); assay: Renin inhibitory activity (renin-inhibitor screening assay kit); assay type: biochemical; conditions: isolated compounds, Table S7; read-out: Inhibition (IC50) Renin (converted)
T1 construct: purchased BPS Bioscince
T1 sequence (P00797 67-406): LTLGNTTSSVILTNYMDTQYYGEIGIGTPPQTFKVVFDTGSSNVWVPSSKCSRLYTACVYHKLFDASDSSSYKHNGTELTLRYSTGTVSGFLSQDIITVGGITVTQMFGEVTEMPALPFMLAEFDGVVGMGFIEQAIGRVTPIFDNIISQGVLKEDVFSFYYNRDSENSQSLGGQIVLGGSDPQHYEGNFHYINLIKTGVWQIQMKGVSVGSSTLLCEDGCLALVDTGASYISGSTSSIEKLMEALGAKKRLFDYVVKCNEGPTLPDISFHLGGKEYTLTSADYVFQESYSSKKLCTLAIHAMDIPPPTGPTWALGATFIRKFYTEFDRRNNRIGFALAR
Experimental: all of analytical grade. […]
(§1) Phenolic acids and flavonoids used in HPLC analysis as well as all other reagents for biological investigations were obtained from Sigma Chemical Company […]
(§2) Inhibitory activity against key enzymes related to metabolic syndrome (MS) All assays were performed in 96-well plates. Stock solutions of the extract (100 mg/mL), fractions (100 mg/mL), and isolated compounds (1000 µM) were prepared. Tested samples that exceeded […]
(§3) inhibitory concentration (IC50). The percentage of enzyme inhibition was calculated according to […]
(§4) % Inhibition = (A−B) − (C−D) x 100 […]
Renin inhibitory activity
The renin inhibitory activity was examined according to a previously described method using renin-inhibitor screening assay kit (BPS Bioscince, San Diego, CA, USA) and quinapril as a reference drug. Recombinant renin enzyme (50 μL) was dissolved in 50-mM Tris-HCl buffer (pH 8.0) and 100-mM NaCl (assay buffer) and stored at –80°C for further analysis. Twenty μL of renin substrate (A500 μM in DMSO), 150 μL of assay buffer, and 10 μL of each sample were used to prepare test solutions (10mg/ml in methanol). The blank samples were made using 10 μL of the sample, 20 μL of the substrate, and 160 μL of assay buffer. The positive control samples were created using 10 μL of methanol, 20 μL of substrate, and 150 μL of assay buffer. The positive control and tested samples were combined with 10 μL of the renin solution for the assay in order to catalyze the reaction. After that, the reaction mixture was incubated for 45 minutes at 37 °C.
The fluorescence generated at the 340 nm excitation and 490 nm emission wavelengths was measured using a microplate reader.
Xanthine oxidase (XO) inhibitory activity
Xanthine oxidase (XO) inhibitory potential was carried out according to a previous designed procedure using xanthine oxidase (XO, EC 1.17.3.2; Biovision, USA). Allopurinol was applied as a reference drug. Immediately prior to use, a mixture was made up of 50 μL of sample solution, 35 μL of phosphate buffer (70 mM, pH = 7.5), and 30 μL of new enzyme solution (0.01 units/mL in the same buffer). The reaction was started by adding 60 μL of the substrate solution (150 μM xanthine in the same buffer) following a pre-incubation at 25 °C for 15 minutes. After that, the mixture was incubated at 25 °C for 30 min. After adding 25 μL of 1 M HCl to terminate the reaction, the absorbance was measured at 290 nm with a microplate reader as previously

[2] = target: T2, inducible nitric oxide synthase (iNOS) (Mus musculus, UniProt P29477); assay: iNOS inhibitory activity in LPS-induced RAW264.7 macrophages (nitrite, Griess reagent); assay type: cell-based; conditions: isolated compounds, Table S7, RAW264.7 cells, read-out: Inhibition (IC50) iNOS (converted)
T2 construct: endogenous in cells; host or cells: RAW264.7 mouse macrophages, LPS-induced
T2 sequence (P29477 1-1144): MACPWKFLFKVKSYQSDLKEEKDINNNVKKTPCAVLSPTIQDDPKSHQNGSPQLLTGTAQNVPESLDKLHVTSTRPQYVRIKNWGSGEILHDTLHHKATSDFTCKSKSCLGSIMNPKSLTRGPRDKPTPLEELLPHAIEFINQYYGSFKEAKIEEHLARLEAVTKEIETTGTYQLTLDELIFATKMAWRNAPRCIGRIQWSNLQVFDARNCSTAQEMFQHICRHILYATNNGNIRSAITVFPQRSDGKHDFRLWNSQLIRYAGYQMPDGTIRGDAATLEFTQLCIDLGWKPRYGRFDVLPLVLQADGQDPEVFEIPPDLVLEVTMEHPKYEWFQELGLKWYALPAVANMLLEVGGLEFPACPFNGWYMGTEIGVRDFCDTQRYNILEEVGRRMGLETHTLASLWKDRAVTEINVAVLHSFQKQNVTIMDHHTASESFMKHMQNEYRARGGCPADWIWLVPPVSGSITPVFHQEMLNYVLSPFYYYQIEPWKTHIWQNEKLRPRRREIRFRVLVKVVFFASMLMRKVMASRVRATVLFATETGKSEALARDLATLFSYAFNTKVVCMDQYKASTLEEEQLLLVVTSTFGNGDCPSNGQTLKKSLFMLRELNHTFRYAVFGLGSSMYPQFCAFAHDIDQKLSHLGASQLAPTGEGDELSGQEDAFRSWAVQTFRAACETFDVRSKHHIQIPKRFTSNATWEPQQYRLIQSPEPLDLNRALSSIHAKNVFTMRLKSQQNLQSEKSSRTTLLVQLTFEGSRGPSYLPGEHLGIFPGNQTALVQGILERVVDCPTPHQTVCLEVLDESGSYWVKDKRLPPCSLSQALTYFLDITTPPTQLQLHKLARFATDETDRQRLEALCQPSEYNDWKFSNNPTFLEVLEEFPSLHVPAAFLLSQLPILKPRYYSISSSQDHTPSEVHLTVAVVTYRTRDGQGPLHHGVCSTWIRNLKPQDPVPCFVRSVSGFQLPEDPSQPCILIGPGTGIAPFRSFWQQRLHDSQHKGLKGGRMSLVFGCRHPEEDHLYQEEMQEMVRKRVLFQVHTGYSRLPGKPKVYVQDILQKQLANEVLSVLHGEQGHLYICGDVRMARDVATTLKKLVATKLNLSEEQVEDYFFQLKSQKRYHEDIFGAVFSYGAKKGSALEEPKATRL
Experimental: as §1, §2, §3, §4
Inducible nitric oxide synthase (iNOS) inhibitory activity iNOS inhibitory activity was determined in mouse macrophage cells (RAW264.7, Shanghai BOGO Industrial Co., Ltd., China) according to a previously designed method. Phenol red-free RPMI medium from Thermo-Fisher was used to develop macrophages. It was supplemented with 10% bovine calf serum, 100 U/mL of penicillin G sodium from Sigma-Aldrich, and 100 µg/mL of streptomycin (Sigma-Aldrich). Cells (50,000/well) were seeded onto 96-well plates, which were […]

SMILES | IC50 [1] | IC50 [2]
C[C@@H]1O[C@@H](OC[C@H]2O[C@@H](Oc3c(-c4ccc(O)c(O)c4)oc4cc(O)cc(O)c4c3=O)[C@H](O)[C@@H](O)[C@@H]2O)[C@H](O)[C@H](O)[C@H]1O [P1, rutin] | 40.8 ± 1.3 µM | 4.99 ± 1.94 µM
O=c1c(O[C@@H]2O[C@H](CO)[C@@H](O)[C@H](O)[C@H]2O)c(-c2ccc(O)c(O)c2)oc2cc(O)cc(O)c12 [P2, isoquercitrin] | 24.8 ± 1.3 µM | 4.8 ± 0.99 µM
COc1cc(-c2oc3cc(O)cc(O)c3c(=O)c2O[C@@H]2O[C@H](CO)[C@@H](O)[C@H](O)[C@H]2O)ccc1O [P3, isorhamnetin-3-O-β-D-glucopyranoside] | 34.8 ± 0.79 µM | 4.89 ± 0.78 µM
O=C(/C=C/c1ccc(O)c(O)c1)O[C@@H]1C[C@](O)(C(=O)O)C[C@@H](O)[C@H]1O [P4, chlorogenic acid] | 47.8 ± 0.25 µM | 4.79 ± 0.89 µM
O=C(O)/C=C/c1ccccc1 [P6, cinnamic acid] | 20.7 ± 0.8 µM | 4.76 ± 0.25 µM

From article PMC10363080, “Modulatory Effect of Pyrus pyrifolia Fruit and its Phenolics on Key Enzymes against Metabolic Syndrome: Bioassay-Guided Approach, HPLC Analysis, and In Silico Study” (Plant Foods for Human Nutrition (Dordrecht, Netherlands), 2023)
